Assay [1] has as its target Recombinant Human Siglec-3/CD33 protein (His-CD33) (Homo sapiens (Human), UniProt P20138). Kind of assay: Differential scanning fluorimetry (DSF) thermal shift assay. The assay is classed as binding. For orientation: Differential scanning fluorimetry follows unfolding on heating by fluorescence.
The target of assay [2] is Recombinant human CD33 protein (Homo sapiens (Human), UniProt P20138). The assay is described as follows: CD33 competitive binding assay for HTS drug screen (fluorescent multivalent sialic acid probe). The procedure, abridged:
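Inhibition was read as reduced retention of a fluorescent multivalent sialic acid complex (final 5 μM neutravidin, 15 μM A-375, 5 μM biotin-4-FITC) on plate-immobilized human CD33. Compound was added first, the probe followed for 30 min at room temperature in PBS with 0.2% Tween-20 and 0.5% BSA, and FITC was measured after a wash.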

Where [3] appears, read: difference in thermal melt of CD33 protein (0.5 μM) with 50 μM compound.
[4] abbreviates: thermal melt shift of 0.5 μM CD33 protein with 50 μM compound.

Sequence of Recombinant Human Siglec-3/CD33 protein (His-CD33) (P20138 18-259): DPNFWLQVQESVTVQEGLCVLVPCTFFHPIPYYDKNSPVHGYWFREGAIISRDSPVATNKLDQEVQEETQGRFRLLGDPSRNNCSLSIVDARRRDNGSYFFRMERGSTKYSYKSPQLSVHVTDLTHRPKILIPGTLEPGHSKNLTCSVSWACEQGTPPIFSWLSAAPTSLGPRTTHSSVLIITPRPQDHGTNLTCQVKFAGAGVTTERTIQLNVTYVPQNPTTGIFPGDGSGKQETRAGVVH
Sequence of Recombinant human CD33 protein (P20138 18-259): as above

What is called EC50 is the concentration needed to bring the measured effect to its halfway point. As to `COC(=O)[C@@]1(CCN2CCOC[C@@]23CCN(C(=O)OC(C)(C)C)C3)CCC[C@H](C[C@H](O)CNC(=O)c2cc(C)c3[nH]ccc3c2)O1` [A-206, tert-butyl (S)-6-(2-((2S,6R)-6-((S)-2-hydroxy-3-(7-methyl-1H-indole-5-carboxamido)propyl)-2-(methoxycarbonyl)tetrahydro-2H-pyran-2-yl)ethyl)-9-oxa-2,6-diazaspiro[4.5]decane-2-carboxylate], the “DSF (dTmD)” value in assay [1] (setting [3]) was 0.1 °C. In addition, the EC50 in assay [2] was > 100000 nM.
Turning to `CC(=O)N[C@H]1[C@H]([C@H](O)[C@H](O)CNC(=O)c2cc(C)c(O)c(C)c2)O[C@@](CCN2C(C)CCC23CCN(C(=O)OC(C)(C)C)C3)(C(=O)O)C[C@@H]1O` (stereo partly drawn) [A-025], in assay [1] (setting [4]), the “DSF (dTmD)” value is recorded as 10.0. For the same compound, the EC50 in assay [2] was determined as 115 nM.
Take `CC(=O)N[C@H]1[C@H]([C@H](O)[C@H](O)CNC(=O)c2cc(C)c(O)c(C)c2)O[C@@](C/C=C/c2cccc(CNC(=O)C3CCC(Nc4cnccn4)CC3)c2)(C(=O)O)C[C@@H]1O` (stereo partly drawn) [A-247]: the “DSF (dTmD)” value in assay [1] (setting [3]) was 8.5 °C. Besides, the EC50 in assay [2] was 353 nM.
`C=CC[C@@]1(NCC[C@]2(C(=O)O)C[C@H](O)[C@@H](NC(C)=O)[C@H]([C@H](O)[C@H](O)CNC(=O)c3cc(C)c(O)c(C)c3)O2)CCN(C(=O)OC(C)(C)C)C1` [A-032]: the “DSF (dTmD)” value in assay [1] (setting [4]) came out at 8.4. For the same compound, the EC50 in assay [2] turned out to be 181 nM.
For `CC(=O)N[C@H]1[C@H]([C@H](O)[C@H](O)CNC(=O)c2cc(C)c(O)c(C)c2)O[C@@](CC2OC(C)(C)O[C@H]2c2cccc(N3CCCC3=O)c2)(C(=O)O)C[C@@H]1O` (stereo partly drawn) [A-309], the “DSF (dTmD)” value in assay [1] (setting [3]) came out at 5.2 °C. The half-maximal effective concentration (EC50) in assay [2] stood at 540 nM.
For `CC(=O)N[C@H]1[C@H]([C@H](O)[C@H](O)CNC(=O)c2cc(C)c(O)c(C)c2)O[C@@](C/C=C/C2CCN(C(=O)OC(C)(C)C)C2)(C(=O)O)C[C@@H]1O` (stereo partly drawn) [A-194], the “DSF (dTmD)” value in assay [1] (setting [4]) is given as 11.7. Moreover, the EC50 in assay [2] was 26 nM.
Taken in the same sequence, the figures for `CC(=O)N[C@H]1[C@H]([C@H](O)[C@H](O)CNC(=O)c2cc(C)c(O)c(C)c2)O[C@@](CCN2CCOC[C@@]23CCN(C(=O)NC(C)(C)C)C3)(C(=O)O)C[C@@H]1O` [A-042] were 13.3 and 12 nM.
Consider `CC(=O)N[C@H]1[C@H]([C@H](O)[C@H](O)CNC(=O)c2cc(C)c(O)c(C)c2)O[C@@](C/C=C/c2cccc(CNC(=O)C3CCC(Nc4ncccn4)C3)c2)(C(=O)O)C[C@@H]1O` (stereo partly drawn) [A-255], for which, in assay [1] (setting [3]), the “DSF (dTmD)” value is 4.2 °C. Moreover, the EC50 in assay [2] stood at 4460 nM.
Taken in the same sequence, the figures for `Cc1cc(C(=O)NC[C@@H](O)[C@@H](O)[C@@H]2O[C@@](C/C=C/c3cccc(CNC(=O)C4C5OCCC[C@H]54)c3)(C(=O)O)C[C@H](O)[C@H]2NC(=O)Cn2cc(C3CCCCC3)nn2)cc(C)c1O` (stereo partly drawn) [A-272] were 4.9 °C and 9640 nM.
In the case of `CC(=O)N[C@H]1[C@H]([C@H](O)[C@H](O)CNC(=O)c2c[nH]c(C)c2)O[C@@](CCN2CCOC[C@@]23CCN(C(=O)OC(C)(C)C)C3)(C(=O)O)C[C@@H]1O` [A-113], in assay [1] (setting [4]), the “DSF (dTmD)” value was determined as 11.1. The EC50 in assay [2] is 34 nM.
For the compound `CC(=O)N[C@H]1[C@H]2O[C@](C(=O)O)(C/C=C/c3cccc(c3)[C@@H](NC(=O)[C@H]3CCCOC3)CCCCOc3c(C)cc(cc3C)C(=O)NC[C@@H](O)[C@H]2O)C[C@@H]1O` [A-348], the “DSF (dTmD)” value in assay [1] (setting [3]) is 3.6 °C. Moreover, in assay [2], the concentration giving a half-maximal response (EC50) was 10100 nM.
Taken in the same sequence, the figures for `CC(=O)N[C@H]1[C@H]([C@H](O)[C@H](O)CNC(=O)c2cc(C)c(O)c(C)c2)O[C@@](C[C@@H]2COC[C@]3(CCN(C(=O)OC(C)(C)C)C3)N2)(C(=O)O)C[C@@H]1O` [A-225] were 6.4 °C and 552 nM.
Take `CC(=O)N[C@H]1[C@H]([C@H](O)[C@H](O)CNC(=O)c2ccc3occc3c2)O[C@@](CCN2CCOC[C@@]23CCN(C(=O)OC(C)(C)C)C3)(C(=O)O)C[C@@H]1O` [A-137]: the “DSF (dTmD)” value in assay [1] (setting [4]) was found to be 12.7. The EC50 in assay [2] is 76 nM.
Regarding `CC(=O)N[C@H]1[C@H]([C@H](O)[C@H](O)CNC(=O)c2ccc(C(F)(F)F)c(C)c2)O[C@@](CCN2CCOC[C@@]23CCN(C(=O)OC(C)(C)C)C3)(C(=O)O)C[C@@H]1O` [A-144], the “DSF (dTmD)” value in assay [1] (setting [4]) was determined as 11.0. Further, the 50% effective concentration (EC50) in assay [2] is 230 nM.
In the case of `CC(=O)N[C@H]1[C@H]([C@H](O)[C@H](O)CNC(=O)c2cc(C)c(O)c(C)c2)O[C@@](CC2OC(C)(C)O[C@@H]2c2ccc(C)c(N3CCCC3=O)c2)(C(=O)O)C[C@@H]1O` (stereo partly drawn) [A-320], in assay [1] (setting [3]), the “DSF (dTmD)” value was found to be 4.8 °C. Further, the 50% effective concentration (EC50) in assay [2] is 960 nM.
On to `CC(=O)N[C@H]1[C@H]([C@H](O)[C@H](O)CNC(=O)c2cc(C)c(O)c(C)c2)O[C@@](CCN2CCOC[C@@]23CCN(C(=O)c2ccccc2)C3)(C(=O)O)C[C@@H]1O` [A-101], for which, in assay [1] (setting [4]), the “DSF (dTmD)” value worked out at 7.4. Moreover, in assay [2], the EC50 came out at 921 nM.
Consider `CC(=O)N[C@H]1[C@H]([C@H](O)[C@H](O)CNC(=O)c2cc(C)c(O)c(C)c2)O[C@@](C/C=C/c2cccc(CNC(=O)c3cccc(NCc4cncs4)c3)c2)(C(=O)O)C[C@@H]1O` [A-246], for which, in assay [1] (setting [3]), the “DSF (dTmD)” value turned out to be 2.2 °C. Further, in assay [2], the 50% effective concentration (EC50) worked out at 4000 nM.
As for `CC(=O)N[C@H]1[C@H]([C@H](O)[C@H](O)CNC(=O)c2cc(C)c(O)c(C)c2)O[C@@](CCN2CCOC[C@@]23CCN(C(=O)NC2CCC(F)(F)CC2)C3)(C(=O)O)C[C@@H]1O` [A-051], the “DSF (dTmD)” value in assay [1] (setting [4]) came out at 10.8. Also, in assay [2], the half-maximal effective concentration (EC50) was 64 nM.
For the compound `CC(=O)N[C@H]1[C@H]([C@H](O)[C@H](O)CNC(=O)c2ccc3[nH]nnc3c2)O[C@@](CCN2CCOC[C@@]23CCN(C(=O)OC(C)(C)C)C3)(C(=O)O)C[C@@H]1O` [A-178], in assay [1] (setting [4]), the “DSF (dTmD)” value is on record as 9.5. Further, the half-maximal effective concentration (EC50) in assay [2] is 146 nM.
Turning to `CC(=O)N[C@H]1[C@H]([C@H](O)[C@H](O)CNC(=O)c2ccc(=O)[nH]c2)O[C@@](CCN2CCOC[C@@]23CCN(C(=O)OC(C)(C)C)C3)(C(=O)O)C[C@@H]1O` [A-171], the “DSF (dTmD)” value in assay [1] (setting [4]) is reported as 3.6. In addition, in assay [2], the EC50 stood at 10300 nM.
Taken in the same sequence, the figures for `CC(=O)N[C@H]1[C@H]([C@H](O)[C@H](O)CNC(=O)c2cc(C)c(=O)n(C)c2)O[C@@](CCN2CCOC[C@@]23CCN(C(=O)OC(C)(C)C)C3)(C(=O)O)C[C@@H]1O` [A-191] were 9.4 and 163 nM.
For the compound `COCCC(=O)NCc1cccc(/C=C/C[C@]2(C(=O)O)C[C@H](O)[C@@H](NC(=O)Cn3cc(C4CCCCC4)nn3)[C@H]([C@H](O)[C@H](O)CNC(=O)c3cc(C)c(O)c(C)c3)O2)c1` [A-265], the “DSF (dTmD)” value in assay [1] (setting [3]) stood at 4.1 °C. In addition, in assay [2], the EC50 came out at 1370 nM.
On the same counts, the results for `CC(=O)N[C@H]1[C@H]([C@H](O)[C@](C)(O)CNC(=O)c2cc(C)c(O)c(C)c2)O[C@@](CCN2CCOC[C@@]23CCN(C(=O)OC(C)(C)C)C3)(C(=O)O)C[C@@H]1O` [A-204] are 5.0 °C and 582 nM.
As for `CC(=O)N[C@H]1[C@H]([C@H](O)[C@H](O)CNC(=O)c2ccc(O)c(C)c2)O[C@@](CCN2CCOC[C@@]23CCN(C(=O)OC(C)(C)C)C3)(C(=O)O)C[C@@H]1O` [A-117], the “DSF (dTmD)” value in assay [1] (setting [4]) is recorded as 12.4. The EC50 in assay [2] amounted to 28 nM.
On the same counts, the results for `CC(=O)N[C@H]1[C@H]([C@H](O)[C@H](O)CNC(=O)c2ccc3ncsc3c2)O[C@@](CCN2CCOC[C@@]23CCN(C(=O)OC(C)(C)C)C3)(C(=O)O)C[C@@H]1O` [A-110] are 12.2 and 30 nM.
For the compound `CC(=O)N[C@H]1[C@H]([C@H](O)[C@H](O)CNC(=O)c2cc(C)c(O)c(C)c2)O[C@@](C/C=C/c2cc(CNC(=O)C3CCCOC3)ccc2C)(C(=O)O)C[C@@H]1O` (stereo partly drawn) [A-289], the “DSF (dTmD)” value in assay [1] (setting [3]) came to 5.3 °C. In assay [2], the EC50 worked out at 2680 nM.
In the case of `CC(=O)N[C@H]1[C@H]([C@H](O)[C@H](O)CNC(=O)c2cc(C)c(O)c(C)c2)O[C@@](CCN2CCOC[C@@]23CCN(C(=O)C2(C)CCC2)C3)(C(=O)O)C[C@@H]1O` [A-103], the “DSF (dTmD)” value in assay [1] (setting [4]) is on record as 6.6. Also, in assay [2], the EC50 is 1020 nM.
On the same counts, the results for `CC(=O)Nc1ccc(C(=O)NC[C@@H](O)[C@@H](O)[C@@H]2O[C@@](CCN3CCOC[C@@]34CCN(C(=O)OC(C)(C)C)C4)(C(=O)O)C[C@H](O)[C@H]2NC(C)=O)cc1` [A-184] are 6.0 and 1090 nM.
As for `CC(=O)N[C@H]1[C@H]([C@H](O)[C@H](O)CNC(=O)c2cc(C)c(O)c(C)c2)O[C@@](CCN2CCOCC2c2cccnc2)(C(=O)O)C[C@@H]1O` (stereo partly drawn) [A-024], the “DSF (dTmD)” value in assay [1] (setting [4]) was found to be 1.1. Also, in assay [2], the concentration for a half-maximal effect (EC50) was found to be 7940 nM.
Taken in the same sequence, the figures for `CC(=O)N[C@H]1[C@H]([C@H](O)[C@H](O)CNC(=O)c2cc(C)n(C)n2)O[C@@](CCN2CCOC[C@@]23CCN(C(=O)OC(C)(C)C)C3)(C(=O)O)C[C@@H]1O` [A-154] were 9.3 and 137 nM.
Regarding `CC(=O)N[C@H]1[C@H]([C@H](O)[C@H](O)CNC(=O)c2cc(C)c(O)c(C)c2)O[C@@](C[C@H]2COC[C@]3(CCN(C(=O)OC(C)(C)C)C3)N2)(C(=O)O)C[C@@H]1O` [A-224], in assay [1] (setting [3]), the “DSF (dTmD)” value stood at 8.9 °C. In assay [2], the concentration for a half-maximal effect (EC50) came to 143 nM.
Taken in the same sequence, the figures for `Cc1cc(C(=O)NC[C@@H](O)[C@@H](O)[C@@H]2O[C@@](OC3CCCCC3NC(=O)Cn3cc(CNC(=O)c4cccc(C#N)c4)nn3)(C(=O)O)C[C@H](O)[C@H]2NC(=O)Cn2cc(C3CCCCC3)nn2)cc(C)c1O` (stereo partly drawn) [A-330] were 5.0 °C and 4810 nM.
Take `CC(=O)N[C@H]1[C@H]([C@H](O)[C@H](O)CNC(=O)c2cc(Br)[nH]n2)O[C@@](CCN2CCOC[C@@]23CCN(C(=O)OC(C)(C)C)C3)(C(=O)O)C[C@@H]1O` [A-133]: the “DSF (dTmD)” value in assay [1] (setting [4]) is reported as 11.4. In addition, the concentration giving a half-maximal response (EC50) in assay [2] is 46 nM.

These data come from patent publication US20250313574A1, “SIALIC ACID DERIVATIVES AND METHODS OF USING SAME” (EISAI R&D MANAGEMENT CO., LTD., priority 2022, published 2025).
